The test system of test [1] is adult mongrel dogs. Put plainly: renal vasodilating activity in anesthetized dogs. Format: in vivo, dog (adult mongrel). Particulars: for change in vivo at 0.34 mg/kg / change in vivo at 0.2 mg/kg / change in vivo at 0.14 mg/kg / change in vivo at 13.9 mg/kg / change in vivo at up to 13.9 mg/kg / change in vivo at 1.2 mg/kg: Canis lupus familiaris, renal vasodilator, relative to controls; for change in vivo at 0.34 mg/kg: dose 0.34 mg/kg intravenous; for change in vivo at 0.2 mg/kg: dose 0.2 mg/kg intravenous; for change in vivo at 0.14 mg/kg: dose 0.14 mg/kg intravenous; for change in vivo at 13.9 mg/kg / change in vivo at up to 13.9 mg/kg: dose 13.9 mg/kg intravenous; for renal vasodilating activity (in words): summary of Table 4; for change in vivo at 1.2 mg/kg: dose 1.2 mg/kg intravenous. An outline of the steps:
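In anesthetized mongrel dogs, compounds infused IV at rising (usually three-fold) rates, 5 min per dose, after a dopamine check (3 μg/kg/min, 10 min). Renal artery flow measured electromagnetically, pressure via carotid cannula; values are maximal % change from pre-drug control in RBF, RVR (MABP/flow), MABP and HR.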

Test [2] concerns the target T1, Phosphodiesterase fraction III (Canis lupus familiaris, UniProt A0A8I3NYE0).
T1 construct: isolated as an isozyme from the crude canine heart homogenate; from tissue; host or cells: canine heart (crude homogenate, ion exchange chromatography, third and last PDE peak)
T1 sequence (A0A8I3NYE0 1-1135): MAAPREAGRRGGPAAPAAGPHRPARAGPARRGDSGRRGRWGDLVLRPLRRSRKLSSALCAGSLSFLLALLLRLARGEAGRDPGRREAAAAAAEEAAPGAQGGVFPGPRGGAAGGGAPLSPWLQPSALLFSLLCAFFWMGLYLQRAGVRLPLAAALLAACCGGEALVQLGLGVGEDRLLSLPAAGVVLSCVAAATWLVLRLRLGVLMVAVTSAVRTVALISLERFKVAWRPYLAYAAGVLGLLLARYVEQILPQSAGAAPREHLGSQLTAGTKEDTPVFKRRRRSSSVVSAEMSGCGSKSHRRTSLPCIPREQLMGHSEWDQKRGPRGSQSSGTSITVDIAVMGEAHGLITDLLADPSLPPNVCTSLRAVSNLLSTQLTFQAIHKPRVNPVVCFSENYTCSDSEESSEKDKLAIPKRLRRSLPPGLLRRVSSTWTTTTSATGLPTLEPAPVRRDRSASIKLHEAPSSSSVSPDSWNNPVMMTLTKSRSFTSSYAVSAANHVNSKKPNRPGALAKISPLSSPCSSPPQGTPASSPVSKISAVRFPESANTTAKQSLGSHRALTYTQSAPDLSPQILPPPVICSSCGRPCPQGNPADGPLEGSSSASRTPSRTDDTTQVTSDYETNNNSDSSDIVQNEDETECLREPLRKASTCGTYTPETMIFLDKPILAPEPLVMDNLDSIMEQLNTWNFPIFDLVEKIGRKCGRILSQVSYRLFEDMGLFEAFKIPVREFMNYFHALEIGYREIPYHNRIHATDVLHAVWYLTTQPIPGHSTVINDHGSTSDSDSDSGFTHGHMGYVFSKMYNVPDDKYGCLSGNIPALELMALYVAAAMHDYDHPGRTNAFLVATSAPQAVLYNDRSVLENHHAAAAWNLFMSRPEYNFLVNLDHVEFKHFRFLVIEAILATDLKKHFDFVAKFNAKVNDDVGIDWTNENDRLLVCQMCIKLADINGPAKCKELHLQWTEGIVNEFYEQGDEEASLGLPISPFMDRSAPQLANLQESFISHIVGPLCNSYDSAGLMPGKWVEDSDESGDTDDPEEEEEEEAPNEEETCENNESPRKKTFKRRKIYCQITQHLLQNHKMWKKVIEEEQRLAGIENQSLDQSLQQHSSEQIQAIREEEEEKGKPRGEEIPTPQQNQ
Put plainly: inhibition of phosphodiesterase fraction III activity. Format: biochemical, canine (heart). Particulars: for IC50: cyclic AMP 0.10-1.0 uM, pH 7.4, canine heart enzyme; for phosphodiesterase fraction III inhibition (in words): summary of Table 5.

For test [3], the system named is adult mongrel dogs. Put plainly: acute in vivo cardiotonic activity in anesthetized dogs. Also on record: species or system dog (adult mongrel). Particulars: for change in vivo at 1.875 mg/kg / change in vivo at 0.875 mg/kg / change in vivo at 0.025 mg/kg / change in vivo at 0.375 mg/kg: Canis lupus familiaris, cardiotonic, relative to controls; for change in vivo at 1.875 mg/kg: dose 1.875 mg/kg intravenous; for change in vivo at 0.875 mg/kg: dose 0.875 mg/kg intravenous; for cardiotonic activity (in words): summary of Table 4; for change in vivo at 0.025 mg/kg: dose 0.025 mg/kg intravenous; for change in vivo at 0.375 mg/kg: dose 0.375 mg/kg intravenous. An outline of the steps:
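Pentobarbital-anaesthetised, artificially respired mongrel dogs received compound by intravenous infusion or oral bolus. Recordings covered femoral arterial pressure, heart rate, LV dP/dt max (Millar catheter), aortic flow cardiac output, right-ventricular contractile force (strain gauge) and lead II ECG. Dopamine 10 μg/kg/min checked responsiveness; dose-related changes were expressed as % of pretreatment values and rated.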

Where [4] appears, read: read-out: MABP (mean arterial blood pressure).
The mark [5] stands for this setting: read-out: RBF (renal blood flow).
[6] abbreviates: read-out: RVR (renal vascular resistance).
Where [7] appears, read: read-out: dP/dt (maximum change left ventricular pressure with time).

The values below come from patent US4822800A (Ortho Pharmaceutical Corporation, priority 1986, dated 1989).

The structures appear in SMILES notation. Entries after “also recorded” stand apart in the source; their conditions may differ. Where two headings read alike, the source gives them in different places.

By IC50 is commonly meant the midpoint of a concentration-inhibition curve.

As to `COc1cc2c(C)nc(O)c(C3CCCC3)c2cc1OC` [AN], the change in vivo at 0.34 mg/kg in test [1] (read-out: HR (heart rate)) was 1%; in test [1] (setting [4]), -1%; in test [1] (setting [5]), 10%; in test [1] (setting [6]), -10%. Further, the IC50 in test [2] stood at 128 µM. Further, the change in vivo at 1.875 mg/kg in test [3] (read-out: CF (cardiac force)) was determined as 46%; in test [3] (read-out: HR (heart rate)), 5%; in test [3] (setting [4]), 3%; in test [3] (setting [7]) it was 22%.
For the compound `Br.COc1cc2c(C)nc(O)c(Br)c2cc1OC.O` [Compound AC, 4-Bromo-3-hydroxy-6,7-dimethoxy-1-methylisoquinoline Hydrobromide Monohydrate], the change in vivo at 0.2 mg/kg in test [1] (setting [5]) was 8%; in test [1] (setting [6]) it was -27%. The same compound returned a concentration for half-maximal inhibition (IC50) in test [2] of 10 µM. Moreover, the “phosphodiesterase fraction III inhibition (in words)” value in test [2] is “inhibit phosphodiesterase fraction III activity”. Besides, the change in vivo at 0.875 mg/kg in test [3] (read-out: CF (cardiac force)) is 128%; in test [3] (read-out: HR (heart rate)), 26%; in test [3] (setting [4]), -40%; in test [3] (setting [7]) it was 25%.
Regarding `COc1cc2c(C)nc(O)c(Cl)c2cc1OC` [Compound AE, 4-Chloro-3-hydroxy-6,7-dimethoxy-1-methylisoquinoline], the change in vivo at 0.14 mg/kg is 12% in test [1] (setting [5]) and -25% in test [1] (setting [6]). In test [2], this compound gave a half-inhibitory concentration (IC50) of 62 µM. In addition, the change in vivo at 0.875 mg/kg in test [3] (read-out: CF (cardiac force)) amounted to 89%; in test [3] (read-out: HR (heart rate)), 29%; in test [3] (setting [4]), 1%; in test [3] (setting [7]) it was 88%.
In the case of `COC(=O)CCc1c(O)nc(C)c2cc(OC)c(OC)cc12` [Compound B, 4-(β-Carbomethoxyethyl)-3-hydroxy-6,7-dimethoxy-1-methylisoquinoline], the change in vivo at 13.9 mg/kg in test [1] (read-out: HR (heart rate)) was 12%; in test [1] (setting [4]), -28%; in test [1] (setting [5]) it was 15%. Besides, the change in vivo at up to 13.9 mg/kg in test [1] (setting [6]) was -38%. Further, the “renal vasodilating activity (in words)” value in test [1] is on record as “renal vasodilating properties”. The compound further had an IC50 in test [2] of 40 µM. The “phosphodiesterase fraction III inhibition (in words)” value in test [2] was “inhibit phosphodiesterase fraction III activity; also recorded: phosphodiesterase fraction III inhibiting properties”. The change in vivo at 0.875 mg/kg is 140% in test [3] (read-out: CF (cardiac force)), 34% in test [3] (read-out: HR (heart rate)), -12% in test [3] (setting [4]) and 78% in test [3] (setting [7]). In addition, the “cardiotonic activity (in words)” value in test [3] is recorded as “cardiotonic properties”.
With `CCc1c(O)nc(C)c2cc(OC)c(OC)cc12` [Compound Z, 4-ethyl-3-hydroxy-6,7-dimethoxy-1-methylisoquinoline], the change in vivo at 1.2 mg/kg was 10% in test [1] (setting [5]) and -38% in test [1] (setting [6]). Moreover, in test [1], the “renal vasodilating activity (in words)” value was “renal vasodilating properties”. Further, in test [2], the midpoint of inhibition, the IC50, lay at 2.4 µM. Also, in test [2], the “phosphodiesterase fraction III inhibition (in words)” value was “inhibit phosphodiesterase fraction III activity; also recorded: phosphodiesterase fraction III inhibiting properties”. Further, the change in vivo at 0.025 mg/kg in test [3] (read-out: CF (cardiac force)) is 143%; in test [3] (read-out: HR (heart rate)) it was 13%; in test [3] (setting [4]), -12%; in test [3] (setting [7]) it was 98%. Moreover, in test [3], the “cardiotonic activity (in words)” value is recorded as “cardiotonic properties”.
In the case of `CCCc1c(O)nc(C)c2cc(OC)c(OC)cc12` [Y], the change in vivo at 13.9 mg/kg in test [1] (setting [5]) is 10%. In test [1] (setting [6]), the change in vivo at up to 13.9 mg/kg is -13%. Besides, in test [1], the “renal vasodilating activity (in words)” value is on record as “renal vasodilating properties”. The half-inhibitory concentration (IC50) in test [2] stood at 5 µM. In addition, the “phosphodiesterase fraction III inhibition (in words)” value in test [2] is “inhibit phosphodiesterase fraction III activity; also recorded: phosphodiesterase fraction III inhibiting properties”. For the same compound, the change in vivo at 0.375 mg/kg in test [3] (read-out: CF (cardiac force)) was 84%; in test [3] (read-out: HR (heart rate)) it was 12%; in test [3] (setting [4]), -16%; in test [3] (setting [7]), 44%. The “cardiotonic activity (in words)” value in test [3] is given as “cardiotonic properties”.
